Assay [1] addresses T1, Trace amine-associated receptor 1 (Homo sapiens) (UniProt Q96RJ0).
T1 sequence (whole entry): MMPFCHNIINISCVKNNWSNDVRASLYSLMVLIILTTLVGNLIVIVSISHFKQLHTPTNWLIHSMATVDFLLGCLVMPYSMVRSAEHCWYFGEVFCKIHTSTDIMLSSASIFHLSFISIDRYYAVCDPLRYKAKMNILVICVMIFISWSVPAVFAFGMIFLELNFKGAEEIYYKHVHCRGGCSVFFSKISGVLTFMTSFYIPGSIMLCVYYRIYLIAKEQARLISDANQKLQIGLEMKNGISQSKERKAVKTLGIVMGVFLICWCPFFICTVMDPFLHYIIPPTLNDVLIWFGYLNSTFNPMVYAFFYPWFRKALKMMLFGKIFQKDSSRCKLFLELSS
Description: Agonist activity at human TAAR1 expressed in HEK293 cells assessed as cAMP accumulation at 10 uM after 20 mins by BRET assay relative to beta-PEA. Type of assay: functional, cell-based.

Assay [2] concerns the target T2, Trace amine-associated receptor 5 (Mus musculus, UniProt Q5QD14).
T2 sequence (Q5QD14 whole entry): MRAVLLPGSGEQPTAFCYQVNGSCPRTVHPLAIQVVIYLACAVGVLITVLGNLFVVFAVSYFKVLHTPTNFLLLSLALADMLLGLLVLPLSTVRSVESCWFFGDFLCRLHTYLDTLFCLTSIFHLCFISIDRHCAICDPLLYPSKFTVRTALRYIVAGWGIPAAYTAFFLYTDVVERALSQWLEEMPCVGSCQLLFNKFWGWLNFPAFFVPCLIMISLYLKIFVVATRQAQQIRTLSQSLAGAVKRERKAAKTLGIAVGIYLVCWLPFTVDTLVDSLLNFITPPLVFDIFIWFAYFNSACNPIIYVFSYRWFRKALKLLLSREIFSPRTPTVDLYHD
Description: Agonist activity at mouse TAAR5 expressed in HEK293 cells assessed as cAMP accumulation after 20 mins by BRET assay. The format is functional, cell-based.

Assay [3] addresses Trace amine-associated receptor 1 (Mus musculus) (UniProt Q923Y8). Description: Agonist activity at mouse TAAR1 expressed in HEK293 cells assessed as cAMP accumulation at 10 uM after 20 mins by BRET assay relative to beta-PEA. The format is functional, cell-based.
For assay [4], the target named is T3, Trace amine-associated receptor 1 (Homo sapiens, UniProt Q96RJ0).
T3 sequence (Q96RJ0 whole entry): T1 sequence (whole entry)
Description: Agonist activity at human TAAR1 expressed in HEK293 cells assessed as cAMP accumulation after 20 mins by BRET assay. The format is functional, cell-based.

Assay [5] can be described thus: Selectivity ratio of EC50 for human TAAR1 expressed in HEK293 cells to EC50 for mouse TAAR1 expressed in HEK293 cells. Type of assay: cell-based.
Assay [6] addresses Trace amine-associated receptor 1 (Mus musculus, UniProt Q923Y8). Description: Agonist activity at mouse TAAR1 expressed in HEK293 cells assessed as cAMP accumulation after 20 mins by BRET assay. The format is functional, cell-based.
The target of assay [7] is T3, Trace amine-associated receptor 1. Description: […] of full length recombinant human N-terminal HA-tagged/C-terminal FLAG-tagged TAAR1 expressed in CHOK1 cells assessed as increase in cAMP accumulation by AlphaScreen assay. Type of assay: functional, cell-based.

Calls of active or inactive are those of the source. No cut-off for these calls is given here.

Trace amine-associated receptor 1 (Mus musculus, UniProt Q923Y8), sequence (Q923Y8 whole entry): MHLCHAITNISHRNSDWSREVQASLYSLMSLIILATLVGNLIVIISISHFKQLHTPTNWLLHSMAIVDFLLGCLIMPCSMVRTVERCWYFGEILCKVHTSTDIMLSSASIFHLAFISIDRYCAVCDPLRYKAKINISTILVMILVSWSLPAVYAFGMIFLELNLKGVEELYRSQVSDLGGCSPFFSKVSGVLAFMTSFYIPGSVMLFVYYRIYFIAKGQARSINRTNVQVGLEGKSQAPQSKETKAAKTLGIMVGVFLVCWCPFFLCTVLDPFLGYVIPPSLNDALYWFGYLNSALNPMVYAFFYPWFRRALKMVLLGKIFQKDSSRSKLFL
Trace amine-associated receptor 1 (Mus musculus), sequence (Q923Y8 whole entry): as above

For `NC(N)=N/C(N)=N/C1CCCC1`, the outcome in assay [1] and in assay [3] was inactive. In addition, in assay [2], the EC50 was above 10 µM.
Turning to `NC(N)=N/C(N)=N/Cc1cccc(F)c1`, the Emax in assay [1] and in assay [3] was above 85% throughout. Further, the EC50 in assay [4] was 1.6 µM; in assay [2], above 10 µM; in assay [6], 0.54 µM. Besides, in assay [5], the Ratio EC50 is 2.96.
Regarding `N=C(N)NC(=N)Nc1ccc(Cl)cc1` [4-CHLOROPHENYLBIGUANIDE], the Emax in assay [1] and in assay [3] was above 85% each time. Also, the EC50 was above 10 µM in assay [4], above 10 µM in assay [2] and 2.1 µM in assay [6]. For the same compound, the Ratio EC50 in assay [5] was above 4.76.
Regarding `NC(N)=N/C(N)=N/c1cccc(F)c1`, the outcome in assay [1] and in assay [3] was inactive. Moreover, the 50% effective concentration (EC50) in assay [2] is above 10 µM.
As to `Cc1ccc(NC(=N)N=C(N)N)cc1`, the Emax in assay [1] and in assay [3] was above 85% in each case. In addition, the EC50 in assay [4] was above 10 µM; in assay [2] it was above 10 µM; in assay [6] it was 1.7 µM. In addition, in assay [5], the Ratio EC50 is above 5.88.
In the case of `NCCc1ccc(Oc2ccc(O)cc2)c(I)c1`, the EC50 in assay [7] was found to be 1.69 µM.
Consider `NC(N)=N/C(N)=N/Cc1ccccc1Cl`, for which the Emax in assay [1] and in assay [3] was above 85% throughout. Besides, the EC50 in assay [4] was 3 µM; in assay [2], above 10 µM; in assay [6], 0.41 µM. In addition, the Ratio EC50 in assay [5] was 7.31.
Regarding `COc1cc(Cc2cnc(N)nc2N)cc(OC)c1OC` [TRIMETHOPRIM], the result in assay [1] and in assay [3] was inactive. The EC50 in assay [2] was above 10 µM.
Regarding `[H]/N=C(\N/C(=N/[H])Nc1ccc(Cl)cc1)NC(C)C` [PROGUANIL], the figures for the EC50 in assay [4], in assay [2] and in assay [6] were above 10 µM, above 10 µM and 5.4 µM, respectively.
As to `NC(N)=N/C(N)=N/c1ccc([N+](=O)[O-])cc1`, the result in assay [1] and in assay [3] was inactive. Also, the EC50 in assay [2] is above 10 µM.
With `N=C(N)NC(=N)Nc1cccc(Cl)c1`, the outcome in assay [1] and in assay [3] was inactive. Besides, the EC50 in assay [2] was above 10 µM.
Regarding `N=C(N)NC(=N)N1CCOCC1`, the result in assay [1] and in assay [3] was inactive.
As for `COc1ccc(CNC(=N)NC(=N)N)cc1`, the outcome in assay [1] and in assay [3] was inactive. The EC50 in assay [2] is above 10 µM.
For `NC(N)=N/C(N)=N/Cc1ccc(Cl)c(Cl)c1`, the Emax in assay [1] and in assay [3] was above 85% each time. For the same compound, the EC50 in assay [4] was 1.2 µM; in assay [2] it was above 10 µM; in assay [6] it was 0.036 µM. The Ratio EC50 in assay [5] was found to be 33.3.
`N=C(N)NC(=N)NC12CC3CC(CC(C3)C1)C2`: the result in assay [1] and in assay [3] was inactive. Also, the concentration for a half-maximal effect (EC50) in assay [2] is above 10 µM.
For `COc1ccc(C/N=C(\N)N=C(N)N)cc1OC`, the outcome in assay [1] and in assay [3] was inactive. The EC50 in assay [2] was above 10 µM.
As for `CC(C)NC(=N)NC(=N)Nc1ccc(Cl)cc1`, the Emax in assay [1] and in assay [3] was above 85% throughout. The Ratio EC50 in assay [5] is above 1.85.
Consider `N=C(N)/N=C(\N)N1CCOCC1` [MOROXYDINE], for which the EC50 in assay [2] is above 10 µM.
As to `N=C(N)NC(=N)Nc1ccccc1Cl`, the Emax in assay [1] and in assay [3] was above 85% throughout. For the same compound, the values for the EC50 in assay [4], in assay [2] and in assay [6] were 1 µM, above 10 µM and 0.41 µM, respectively. The Ratio EC50 in assay [5] was found to be 2.44.
`NC(N)=N/C(N)=N/Cc1cccc(Cl)c1`: the Emax in assay [1] and in assay [3] was above 85% throughout. In addition, the EC50 in assay [4] is 7 µM; in assay [2] it was above 10 µM; in assay [6], 0.097 µM. For the same compound, the Ratio EC50 in assay [5] turned out to be 72.2.
For the compound `CC1(C)N=C(N)N=C(N)N1c1ccc(Cl)cc1` [CYCLOGUANIL], the result in assay [1] and in assay [3] was inactive. For the same compound, the EC50 in assay [2] is above 10 µM.
On to `NC(N)=N/C(N)=N/C1CCCCCC1`, for which the result in assay [1] and in assay [3] was inactive. Besides, the EC50 in assay [2] is above 10 µM.
As for `COc1ccc(/N=C(\N)N=C(N)N)cc1`, the outcome in assay [1] and in assay [3] was inactive. For the same compound, the EC50 in assay [2] is above 10 µM.
For the compound `NC1=NC2(CCCCC2)N(c2ccc(Cl)cc2)C(N)=N1`, the result in assay [1] and in assay [3] was inactive. Further, the EC50 in assay [2] was above 10 µM.
Take `N=C(N)NC(=N)Nc1ccc(Cl)c(Cl)c1`: the outcome in assay [1] and in assay [3] was inactive. Besides, the EC50 in assay [2] was above 10 µM.
Regarding `NC(N)=N/C(N)=N/Cc1ccc(Cl)cc1`, the Emax in assay [1] and in assay [3] was above 85% throughout. Besides, the EC50 in assay [4] is 1.8 µM; in assay [2], above 10 µM; in assay [6], 0.78 µM. In addition, the Ratio EC50 in assay [5] came out at 2.31.
Take `NC(N)=N/C(N)=N/Cc1cccc(Br)c1`: the Emax in assay [1] and in assay [3] was above 85% in each case. The concentration giving a half-maximal response (EC50) is 4.9 µM in assay [4], above 10 µM in assay [2] and 1.8 µM in assay [6]. For the same compound, the Ratio EC50 in assay [5] was 2.72.
On to `N=C(N)NC(=N)Nc1ccccc1` [PHENYL BIGUANIDE], for which the result in assay [1] and in assay [3] was inactive. For the same compound, the EC50 in assay [2] is above 10 µM.
Regarding `N=C(N)NC(=N)NCc1ccccc1`, the Emax in assay [1] and in assay [3] was above 85% each time. The figures for the EC50 in assay [4], in assay [2] and in assay [6] were above 10 µM, above 10 µM and 0.78 µM, respectively. The Ratio EC50 in assay [5] was above 12.8.
Regarding `CCc1nc(N)nc(N)c1-c1ccc(Cl)cc1` [PYRIMETHAMINE], the result in assay [1] and in assay [3] was inactive. The EC50 in assay [2] was above 10 µM.

The values above are taken from ChEMBL document CHEMBL3992498, “Novel biguanide-based derivatives scouted as TAAR1 agonists: Synthesis, biological evaluation, ADME prediction and molecular docking studies” (Eur J Med Chem, 2017).
